Source: patent publication US10087171B2, “Crystalline forms of cadazolid” (ACTELION PHARMACEUTICALS LTD, priority 2016, dated 2018)

Legend:
Format in all cases: physicochemical
[1] = Gravimetric water vapor sorption analysis GVS1 at 25° C.; settings: for hysteresis in GVS: 0% to 95% r.h.
Procedure: GVS1: Projekt Messtechnik SPS 11-100n water vapor sorption analyzer. The samples are placed in aluminum crucibles on top of a microbalance. They are equilibrated at 25° C. and 50% r.h. and are then subjected to a pre-defined humidity program at 25° C. in the order 50-0-95-50% r.h. A scanning rate of r.h.=5%/h is used and ‘isohumid’ equilibration periods are included at the extreme values.

[2] = Relative thermodynamic stability deduced from melting points and melting enthalpies; settings: at room temperature
Procedure: DSC data are collected on a Perkin Elmer DSC 7. The instrument is calibrated for energy and temperature using certified indium. Samples are sealed in hermetically closed gold crucibles under N2, heating rates of 10° C./min or 100° C./min, scan from −50° C. to variable end temperatures. Peak temperatures are reported for melting points.
The relative thermodynamic stability of polymorphic forms can be deduced from their melting points and melting enthalpies (L. Yu, Journal of Pharmaceutical Sciences 84 (1995) 966-974). These values are summarized in the Table 6 below for form A and C of cadazolid: […]

[3] = Suspension equilibration experiments
Procedure: 27 mg of cadazolid in form A and 25 mg of cadazolid in form C (obtainable as described in Example 3) are suspended in 1 mL H2O, treated for 5 min in an ultrasound bath and agitated at 25° C. The solid is filtered off after 5 days and analyzed. The obtained material is cadazolid in form B.
The following suspension equilibration experiments are performed in organic solvent (mixture of methanol and dichloromethane) and in water:
26 mg of cadazolid in form A and 25 mg of cadazolid in form C are suspended in 1 mL MeOH/CH2Cl21:3 and agitated at 25° C. The solid is filtered off after 5 days and is cadazolid in form A.
27 mg of cadazolid in form A and 26 mg of cadazolid in form C are suspended in 1 mL MeOH/CH2Cl2 1:3 and agitated at 5° C. for 2 days. Some solid is isolated by drying on a filter paper and consists of cadazolid in form A.
29 mg of cadazolid in form A and 26 mg of cadazolid in form C are suspended in 1 mL H2O, treated for 5 min in an ultrasound bath and agitated at 5° C. for 2 days. Some solid is isolated by drying on filter paper and consists of cadazolid in form B.

[4] = Gravimetric water vapor sorption analysis GVS2 at 25° C.
Text: GVS2: Surface Measurement Systems Ltd. DVS-1 water vapor sorption analyzer. The sample is placed in a Pt pan suspended on a micro balance and is exposed to a N2 flow with 95% r.h. at the beginning and then decreasing with a constant rate of 5%/h.

[5] = MeOH/CH2Cl2 1:3, 25° C., 5 days

solid form after GVS (post GVS XRPD) [1]	weight increase between 0% and 95% r.h. [1]	weight increase between 0% and 95% r.h. as equivalents H2O [1]	hysteresis in GVS [1]	water content of the solid at 40% r.h. [1]	hygroscopicity classification ([1]; 40% to 95% r.h., adapted methodology, classification according to Pharm. Eur 8.0, section 5.11)	water content of the solid at 95% r.h. [1]	maximum difference in water content between 0% and 95% r.h. [1]	relative thermodynamic stability of polymorphic forms A and C [2]	solid form obtained after suspension equilibration of form A and form C together ([3]; H2O, 5° C., 2 days)	solid form obtained after suspension equilibration of form A and form C together ([3]; H2O, 25° C., 5 days)	solid form obtained after suspension equilibration of form A and form C together ([3]; MeOH/CH2Cl2 1:3, 5° C., 2 days)	solid form obtained after suspension equilibration of form A and form C together [3, 5]	SMILES	relative thermodynamic stability concluded from suspension equilibration and GVS2 data ([3]; at 25° C., both at low and high relative humidity)	continuous weight loss during 6 h equilibration at 95% r.h. [4]	r.h. at which the water content of form A is reached ([4]; decreasing r.h.)	additional, accelerated weight loss upon lowering the r.h. ([4]; r.h. lowered at a rate of 5%/h)
amorphous as tested by a post GVS	A weight increase of about 7% (circa	2.3 equivalents H2O) between 0% and	95% r.h. with a significant hysteresis	1.8%	considered as being hygroscopic (adapted	7.17%							O=C(O)c1cn(C2CC2)c2cc(N3CCC(O)(COc4ccc(N5C[C@H](CO)OC5=O)cc4F)CC3)c(F)cc2c1=O [amorphous state, 1-cyclopropyl-6-fluoro-7-{4-[2-fluoro-4-((R)-5-hydroxymethyl-2-oxo-oxazolidin-3-yl)-phenoxymethyl]-4-hydroxy-piperidin-1-yl}-4-oxo-1,4-dihydro-quinoline-3-carboxylic acid]				
			No hysteresis	0.81%		1.81%	~0.5 mol/mol	more thermodynamically stable form	form B	form B	form A	form A	O=C(O)c1cn(C2CC2)c2cc(N3CCC(O)(COc4ccc(N5C[C@H](CO)OC5=O)cc4F)CC3)c(F)cc2c1=O [crystalline form A, 1-cyclopropyl-6-fluoro-7-{4-[2-fluoro-4-((R)-5-hydroxymethyl-2-oxo-oxazolidin-3-yl)-phenoxymethyl]-4-hydroxy-piperidin-1-yl}-4-oxo-1,4-dihydro-quinoline-3-carboxylic acid]	thermodynamically more stable than form C			
													O=C(O)c1cn(C2CC2)c2cc(N3CCC(O)(COc4ccc(N5C[C@H](CO)OC5=O)cc4F)CC3)c(F)cc2c1=O [crystalline form B, 1-cyclopropyl-6-fluoro-7-{4-[2-fluoro-4-((R)-5-hydroxymethyl-2-oxo-oxazolidin-3-yl)-phenoxymethyl]-4-hydroxy-piperidin-1-yl}-4-oxo-1,4-dihydro-quinoline-3-carboxylic acid]		30% during 6 h equilibration at 95% r.h. is	the r.h. at a rate of 5%/h. At 80% r.h., the water	loss of approx. 15% is observed upon lowering
				0.33%		2.52%			form B	form B	form A	form A	O=C(O)c1cn(C2CC2)c2cc(N3CCC(O)(COc4ccc(N5C[C@H](CO)OC5=O)cc4F)CC3)c(F)cc2c1=O [crystalline form C, 1-cyclopropyl-6-fluoro-7-{4-[2-fluoro-4-((R)-5-hydroxymethyl-2-oxo-oxazolidin-3-yl)-phenoxymethyl]-4-hydroxy-piperidin-1-yl}-4-oxo-1,4-dihydro-quinoline-3-carboxylic acid]				
